Data taken from the supplement of paper PMC10307832.

Tests used:
Assay in all cases: relative viability (nuclei count vs DMSO), 5 days (fraction); higher = more cells survive
NCI-H647 = system: NCI-H647
Method in brief: (§1)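 For relative viability, nuclei counts in treated wells were divided by those in vehicle wells. Lung cancer cell lines had been pin-tool dosed in 1536-well plates the day after seeding and cultured for 5 days, then fixed and stained in one step (final 0.05% Triton X-100, 1% formaldehyde, 1 ug/ml Hoechst) and imaged at 4×. Doses were one drug alone or a fixed anchor-drug dose plus five library-drug doses (not always all listed) in √10 steps, and values are duplicate-plate medians.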

NCI-H1437 = system: NCI-H1437
Method in brief: as §1

NCI-H1651 = system: NCI-H1651
Method in brief: as §1

HCC-78 = system: HCC-78
Method in brief: as §1

NCI-H661 = system: NCI-H661
Method in brief: as §1

NCI-H1395 = system: NCI-H1395
Method in brief: as §1

NCI-H1793 = system: NCI-H1793
Method in brief: as §1

NCI-H23 = system: NCI-H23
Method in brief: as §1

NCI-H1734 = system: NCI-H1734
Method in brief: as §1

EMC-BAC-2 = system: EMC-BAC-2
Method in brief: as §1

LCLC-103H = system: LCLC-103H
Method in brief: as §1

ABC-1 = system: ABC-1
Method in brief: as §1

NCI-H1792 = system: NCI-H1792
Method in brief: as §1

NCI-H2405 = system: NCI-H2405
Method in brief: as §1

RERF-LC-KJ = system: RERF-LC-KJ
Method in brief: as §1

NCI-H1915 = system: NCI-H1915
Method in brief: as §1

SK-LU-1 = system: SK-LU-1
Method in brief: as §1

201T = system: 201T
Method in brief: as §1

EPLC-272H = system: EPLC-272H
Method in brief: as §1

NCI-H2023 = system: NCI-H2023
Method in brief: as §1

NCI-H1975 = system: NCI-H1975
Method in brief: as §1

UMC-11 = system: UMC-11
Method in brief: as §1

LOU-NH91 = system: LOU-NH91
Method in brief: as §1

Work on `Cc1cnc(-c2cnc(NCCNc3ccc(C#N)cn3)nc2-c2ccc(Cl)cc2Cl)[nH]1` + Cc1nc(NC(=O)N2CCC[C@H]2C(N)=O)sc1-c1ccnc(C(C)(C)C(F)(F)F)c1 [Alpelisib] (partner 2 µM) yielded a relative viability (NCI-H647; first compound 0.08 µM) of 1.19, a relative viability (NCI-H647; first compound 0.253 µM) of 1.08 and a relative viability (NCI-H647; first compound 0.8 µM) of 1.05. The relative viability (NCI-H647; first compound 2.53 µM) was 1.22, the relative viability (NCI-H1437; first compound 0.08 µM) was 0.962 and the relative viability (NCI-H1437; first compound 0.253 µM) was 0.937. It also gave a relative viability (NCI-H1437; first compound 0.8 µM) of 0.909, a relative viability (NCI-H1437; first compound 2.53 µM) of 0.918 and a relative viability (NCI-H1651; first compound 0.08 µM) of 1.08. The relative viability (NCI-H1651; first compound 0.253 µM) was 0.903, the relative viability (NCI-H1651; first compound 0.8 µM) was 0.965 and the relative viability (NCI-H1651; first compound 2.53 µM) was 0.991. For the same molecule, the relative viability (HCC-78; first compound 0.08 µM) was 0.401, the relative viability (HCC-78; first compound 0.253 µM) was 0.285 and the relative viability (HCC-78; first compound 0.8 µM) was 0.308. It also gave a relative viability (HCC-78; first compound 2.53 µM) of 0.333, a relative viability (NCI-H661; first compound 0.08 µM) of 0.419 and a relative viability (NCI-H661; first compound 0.253 µM) of 0.645. For the same molecule, the relative viability (NCI-H661; first compound 0.8 µM) was 0.76, the relative viability (NCI-H661; first compound 2.53 µM) was 0.654 and the relative viability (NCI-H1395; first compound 0.08 µM) was 1.23. The relative viability (NCI-H1395; first compound 0.253 µM) was 1.03, the relative viability (NCI-H1395; first compound 0.8 µM) was 1.41 and the relative viability (NCI-H1395; first compound 2.53 µM) was 0.971. The relative viability (NCI-H1793; first compound 0.08 µM) was 0.838, the relative viability (NCI-H1793; first compound 0.253 µM) was 0.618 and the relative viability (NCI-H1793; first compound 0.8 µM) was 0.973. It also gave a relative viability (NCI-H1793; first compound 2.53 µM) of 1.08, a relative viability (NCI-H23; first compound 0.08 µM) of 0.819 and a relative viability (NCI-H23; first compound 0.253 µM) of 0.591. For the same molecule, the relative viability (NCI-H23; first compound 0.8 µM) was 0.818, the relative viability (NCI-H23; first compound 2.53 µM) was 0.72 and the relative viability (NCI-H1734; first compound 0.08 µM) was 0.766. The relative viability (NCI-H1734; first compound 0.253 µM) was 0.673, the relative viability (NCI-H1734; first compound 0.8 µM) was 0.656 and the relative viability (NCI-H1734; first compound 2.53 µM) was 0.633. For the same molecule, the relative viability (EMC-BAC-2; first compound 0.08 µM) was 0.8, the relative viability (EMC-BAC-2; first compound 0.253 µM) was 0.72 and the relative viability (EMC-BAC-2; first compound 0.8 µM) was 0.743. It also gave a relative viability (EMC-BAC-2; first compound 2.53 µM) of 0.749, a relative viability (LCLC-103H; first compound 0.08 µM) of 1.16 and a relative viability (LCLC-103H; first compound 0.253 µM) of 0.958. For the same molecule, the relative viability (LCLC-103H; first compound 0.8 µM) was 1.07, the relative viability (LCLC-103H; first compound 2.53 µM) was 0.951 and the relative viability (ABC-1; first compound 0.08 µM) was 0.961. For the same molecule, the relative viability (ABC-1; first compound 0.253 µM) was 0.867, the relative viability (ABC-1; first compound 0.8 µM) was 1.02 and the relative viability (ABC-1; first compound 2.53 µM) was 0.814. The relative viability (NCI-H1792; first compound 0.08 µM) was 0.736, the relative viability (NCI-H1792; first compound 0.253 µM) was 0.639 and the relative viability (NCI-H1792; first compound 0.8 µM) was 0.625. For the same molecule, the relative viability (NCI-H1792; first compound 2.53 µM) was 0.674, the relative viability (NCI-H2405; first compound 0.08 µM) was 1.09 and the relative viability (NCI-H2405; first compound 0.253 µM) was 0.793. The relative viability (NCI-H2405; first compound 0.8 µM) was 0.811, the relative viability (NCI-H2405; first compound 2.53 µM) was 0.592 and the relative viability (RERF-LC-KJ; first compound 0.08 µM) was 0.984. It also gave a relative viability (RERF-LC-KJ; first compound 0.253 µM) of 0.746, a relative viability (RERF-LC-KJ; first compound 0.8 µM) of 0.775 and a relative viability (RERF-LC-KJ; first compound 2.53 µM) of 0.916. For the same molecule, the relative viability (NCI-H1915; first compound 0.08 µM) was 1.08, the relative viability (NCI-H1915; first compound 0.8 µM) was 1.09 and the relative viability (NCI-H1915; first compound 2.53 µM) was 1.01. For the same molecule, the relative viability (SK-LU-1; first compound 0.08 µM) was 1.09, the relative viability (SK-LU-1; first compound 0.253 µM) was 0.931 and the relative viability (SK-LU-1; first compound 0.8 µM) was 1.28. It also gave a relative viability (SK-LU-1; first compound 2.53 µM) of 1.18, a relative viability (201T; first compound 0.08 µM) of 1.07 and a relative viability (201T; first compound 0.253 µM) of 0.959. The relative viability (201T; first compound 0.8 µM) was 1.01, the relative viability (201T; first compound 2.53 µM) was 1.02 and the relative viability (EPLC-272H; first compound 0.08 µM) was 0.911. It also gave a relative viability (EPLC-272H; first compound 0.253 µM) of 1.01, a relative viability (EPLC-272H; first compound 0.8 µM) of 0.728 and a relative viability (EPLC-272H; first compound 2.53 µM) of 0.899. It also gave a relative viability (NCI-H2023; first compound 0.08 µM) of 0.574, a relative viability (NCI-H2023; first compound 0.253 µM) of 0.656 and a relative viability (NCI-H2023; first compound 0.8 µM) of 0.747. For the same molecule, the relative viability (NCI-H2023; first compound 2.53 µM) was 1.12, the relative viability (NCI-H1975; first compound 0.08 µM) was 0.667 and the relative viability (NCI-H1975; first compound 0.253 µM) was 0.571. The relative viability (NCI-H1975; first compound 0.8 µM) was 0.561, the relative viability (NCI-H1975; first compound 2.53 µM) was 0.52 and the relative viability (UMC-11; first compound 0.08 µM) was 0.844. The relative viability (UMC-11; first compound 0.253 µM) was 0.903, the relative viability (UMC-11; first compound 0.8 µM) was 1.02 and the relative viability (UMC-11; first compound 2.53 µM) was 0.908. For the same molecule, the relative viability (LOU-NH91; first compound 0.08 µM) was 0.852, the relative viability (LOU-NH91; first compound 0.253 µM) was 0.729 and the relative viability (LOU-NH91; first compound 0.8 µM) was 0.675. For the same molecule, the relative viability (LOU-NH91; first compound 2.53 µM) was 0.715.
